Test results: ChEMBL document CHEMBL3045468, “I2 catalyzed FriedelCrafts alkylation reaction of substituted anilines with ninhydrin: formation of novel products and their antimicrobial evaluation” (2013)
Converted amounts (≈) assume the structure as drawn. The source made the active and inactive calls. No cut-off for these calls is given here.

Key:
[1] = tested on: Escherichia coli; test: Antibacterial activity against Escherichia coli 319 clinical isolate assessed as growth inhibition at 1 mg/ml after 24 hr by NCCLS agar diffusion method; type: functional; details: for zone of inhibition at 1000 µg/mL: Escherichia coli, 319, 24 h, read-out: DIZ
[2] = tested on: Bacillus pumilus; test: Antibacterial activity against Bacillus pumilus 11778 clinical isolate assessed as growth inhibition at 1 mg/ml after 24 hr by NCCLS agar diffusion method; type: functional; details: for zone of inhibition at 1000 µg/mL: Bacillus pumilus, 11778, 24 h, read-out: DIZ
[3] = tested on: Micrococcus luteus; test: Antibacterial activity against Micrococcus luteus ATCC 9341 clinical isolate assessed as growth inhibition at 1 mg/ml after 24 hr by NCCLS agar diffusion method; type: functional; details: for zone of inhibition at 1000 µg/mL: ATCC 9341, 24 h, read-out: DIZ
[4] = tested on: Staphylococcus aureus; test: Antibacterial activity against Staphylococcus aureus 29737 clinical isolate assessed as growth inhibition at 1 mg/ml after 24 hr by NCCLS agar diffusion method; type: functional; details: for zone of inhibition at 1000 µg/mL: Staphylococcus aureus, 29737, 24 h, read-out: DIZ
[5] = tested on: Vibrio cholerae; test: Antibacterial activity against Vibrio cholerae 759 clinical isolate assessed as growth inhibition at 1 mg/ml after 24 hr by NCCLS agar diffusion method; type: functional; details: for zone of inhibition at 1000 µg/mL: Vibrio cholerae, 759, 24 h, read-out: DIZ
[6] = tested on: Pseudomonas aeruginosa; test: Antibacterial activity against Pseudomonas aeruginosa 71 clinical isolate assessed as growth inhibition at 1 mg/ml after 24 hr by NCCLS agar diffusion method; type: functional
[7] = tested on: Shigella dysenteriae; test: Antibacterial activity against Shigella dysenteriae 15 clinical isolate assessed as growth inhibition at 1 mg/ml after 24 hr by NCCLS agar diffusion method; type: functional; details: for zone of inhibition at 1000 µg/mL: Shigella dysenteriae, 15, 24 h, read-out: DIZ
[8] = tested on: Klebsiella pneumoniae; test: Antibacterial activity against Klebsiella pneumoniae J/I/4 clinical isolate assessed as growth inhibition at 1 mg/ml after 24 hr by NCCLS agar diffusion method; type: functional; details: for zone of inhibition at 1000 µg/mL: J/I/4, 24 h, read-out: DIZ
[9] = tested on: Cryptococcus neoformans; test: Antifungal activity against Cryptococcus neoformans clinical isolate assessed as growth inhibition at 1 mg/ml after 96 hr by NCCLS agar diffusion method; type: functional; details: read-out: DIZ
[10] = tested on: Aspergillus niger; test: Antifungal activity against Aspergillus niger clinical isolate assessed as growth inhibition after 96 hr by agar dilution method; type: functional
[11] = tested on: Candida tropicalis; test: Antifungal activity against Candida tropicalis clinical isolate assessed as growth inhibition after 96 hr by agar dilution method; type: functional
[12] = tested on: Aspergillus niger; test: Antifungal activity against Aspergillus niger clinical isolate assessed as growth inhibition at 1 mg/ml after 96 hr by NCCLS agar diffusion method; type: functional; details: read-out: DIZ
[13] = tested on: Shigella dysenteriae; test: Antibacterial activity against Shigella dysenteriae 15 clinical isolate assessed as growth inhibition after 24 hr by agar dilution method; type: functional
[14] = tested on: Vibrio cholerae; test: Bactericidal activity against Vibrio cholerae 759 clinical isolate assessed as reduction of viable CFU count at MIC measured up to 48 hr relative to untreated control; type: functional, organism-based
[15] = tested on: Escherichia coli; test: Bactericidal activity against Escherichia coli 319 clinical isolate assessed as reduction of viable CFU count at MIC measured up to 48 hr relative to untreated control; type: functional, organism-based
[16] = tested on: Vibrio cholerae; test: Antibacterial activity against Vibrio cholerae 759 clinical isolate assessed as growth inhibition after 24 hr by agar dilution method; type: functional
[17] = tested on: Candida albicans; test: Antifungal activity against Candida albicans clinical isolate assessed as growth inhibition after 96 hr by agar dilution method; type: functional
[18] = tested on: Escherichia coli; test: Antibacterial activity against Escherichia coli 319 clinical isolate assessed as morphological changes at MIC after 24 hr by scanning electron microscopic analysis; type: functional, organism-based
[19] = tested on: Candida tropicalis; test: Antifungal activity against Candida tropicalis clinical isolate assessed as growth inhibition at 1 mg/ml after 96 hr by NCCLS agar diffusion method; type: functional; details: read-out: DIZ
[20] = tested on: Candida albicans; test: Antifungal activity against Candida albicans clinical isolate assessed as growth inhibition at 1 mg/ml after 96 hr by NCCLS agar diffusion method; type: functional; details: read-out: DIZ
[21] = tested on: Staphylococcus aureus; test: Antibacterial activity against Staphylococcus aureus 29737 clinical isolate assessed as growth inhibition after 24 hr by agar dilution method; type: functional
[22] = tested on: Pseudomonas aeruginosa; test: Antibacterial activity against Pseudomonas aeruginosa 71 clinical isolate assessed as growth inhibition after 24 hr by agar dilution method; type: functional
[23] = tested on: Escherichia coli; test: Antibacterial activity against Escherichia coli 319 clinical isolate assessed as growth inhibition after 24 hr by agar dilution method; type: functional
[24] = tested on: Klebsiella pneumoniae; test: Antibacterial activity against Klebsiella pneumoniae J/I/4 clinical isolate assessed as growth inhibition after 24 hr by agar dilution method; type: functional
[25] = tested on: Cryptococcus neoformans; test: Antifungal activity against Cryptococcus neoformans clinical isolate assessed as growth inhibition after 96 hr by agar dilution method; type: functional

Molecule	growth inhibition (GI) [1]	zone of inhibition at 1000 µg/mL [2] [mm]	growth inhibition (GI) [3]	growth inhibition (GI) [4]	zone of inhibition at 1000 µg/mL [5] [mm]	growth inhibition (GI) [6]	growth inhibition (GI) [7]	zone of inhibition at 1000 µg/mL [8] [mm]	zone of inhibition at 1000 µg/mL [1] [mm]	growth inhibition (GI) [2]	growth inhibition (GI) [5]	growth inhibition (GI) [8]	also measured
COc1cc(C2(c3ccc(N)c(OC)c3)C(=O)c3ccccc3C2=O)ccc1N	inactive	8	inactive	inactive	7	inactive	inactive	7					
Nc1c(Cl)cc(Cl)cc1C1(Nc2ccc(Cl)cc2Cl)C(=O)c2ccccc2C1=O			inactive	inactive	7	inactive		7	8	inactive			zone of inhibition at 1000 µg/mL [9]: 8 mm; MIC [10]: 1000 mg/L (≈ 2150 µM); MIC [11]: 1000 mg/L (≈ 2150 µM); zone of inhibition at 1000 µg/mL [12]: 8 mm; zone of inhibition at 1000 µg/mL [7]: 7 mm
Cc1cc(C2(c3cc(C)c(N)cc3F)C(=O)c3ccccc3C2=O)c(F)cc1N		7	inactive	inactive		inactive	inactive	7	7		inactive		
Cc1ccc(NC2(c3cc(C)c(C)cc3N)C(=O)c3ccccc3C2=O)cc1C			inactive	inactive		inactive	inactive		7	inactive	inactive	inactive	
Nc1ccc(C2(c3ccc(N)c(Cl)c3)C(=O)c3ccccc3C2=O)cc1Cl			inactive	inactive		inactive		8	8	inactive	inactive		MIC ([13]; Shigella dysenteriae, 15, 24 h): 32000 mg/L (≈ 80600 µM); zone of inhibition at 1000 µg/mL [7]: 6 mm
COc1cc(C2(Nc3cc(Cl)ccc3OC)C(=O)c3ccccc3C2=O)c(Cl)cc1N	inactive			inactive	8	inactive	inactive			inactive		inactive	zone of inhibition at 1000 µg/mL [3]: 9 mm; Activity [14]: Active; Activity [15]: Active; MIC ([16]; Vibrio cholerae, 759, 24 h): 32000 mg/L (≈ 70000 µM)
Nc1ccc(C2(c3ccc(N)c(I)c3)C(=O)c3ccccc3C2=O)cc1I	inactive						inactive			inactive	inactive	inactive	zone of inhibition at 1000 µg/mL [3]: 8 mm; zone of inhibition at 1000 µg/mL [4]: 8 mm; zone of inhibition at 1000 µg/mL ([6]; Pseudomonas aeruginosa, 71, 24 h, read-out: DIZ): 8 mm
Cc1cc(C2(c3cc(C)c(N)c(C)c3)C(=O)c3ccccc3C2=O)cc(C)c1N	inactive	9	inactive	inactive		inactive	inactive				inactive	inactive	
Cc1cc(C2(c3ccc(N)c(C)c3)C(=O)c3ccccc3C2=O)ccc1N		7	inactive	inactive	8	inactive			7			inactive	MIC [17]: 1000 mg/L (≈ 2810 µM); Activity [18]: Active; zone of inhibition at 1000 µg/mL [19]: 8 mm; Activity [14]: Active; zone of inhibition at 1000 µg/mL [20]: 10 mm; MIC [10]: 1000 mg/L (≈ 2810 µM); MIC [11]: 2000 mg/L (≈ 5610 µM); zone of inhibition at 1000 µg/mL [12]: 7.6 mm; Activity [15]: Active; zone of inhibition at 1000 µg/mL [7]: 7 mm
CCN(CC)c1ccc(C2(O)C(=O)c3ccccc3C2=O)cc1		7	inactive	inactive		inactive			9		inactive	inactive	zone of inhibition at 1000 µg/mL [7]: 7 mm
CN(C)c1ccc(C2(O)C(=O)c3ccccc3C2=O)cc1			inactive			inactive	inactive		7	inactive	inactive	inactive	zone of inhibition at 1000 µg/mL [4]: 7 mm
GENTAMICIN													MIC [21]: 1000 mg/L; MIC [22]: 4000 mg/L; MIC [23]: 500 mg/L; MIC [24]: 250 mg/L; MIC [13]: 2000 mg/L; MIC [16]: 2000 mg/L
CNc1ccc(C2(c3ccc(NC)cc3)C(=O)c3ccccc3C2=O)cc1			inactive	inactive	8	inactive	inactive	7.5	7	inactive			
OC(Cn1cncn1)(Cn1cncn1)c1ccc(F)cc1F [FLUCONAZOLE]													MIC [17]: 4 mg/L (≈ 13.1 µM); MIC [25]: 8 mg/L (≈ 26.1 µM); MIC [10]: 10 mg/L (≈ 32.7 µM); MIC [11]: 8 mg/L (≈ 26.1 µM)
Nc1ccc(C2(c3ccc(N)c(Br)c3)C(=O)c3ccccc3C2=O)cc1Br		8	inactive	inactive	9	inactive	inactive	6	8				MIC [17]: 2500 mg/L (≈ 5140 µM); MIC [25]: 1500 mg/L (≈ 3090 µM); zone of inhibition at 1000 µg/mL [19]: 8 mm; zone of inhibition at 1000 µg/mL [9]: 8 mm; zone of inhibition at 1000 µg/mL [20]: 10 mm; MIC [10]: 1000 mg/L (≈ 2060 µM); MIC [11]: 2000 mg/L (≈ 4110 µM); zone of inhibition at 1000 µg/mL [12]: 12 mm
COc1cc(N)ccc1C1(O)C(=O)c2ccccc2C1=O	inactive					inactive	inactive			inactive	inactive	inactive	zone of inhibition at 1000 µg/mL [3]: 8 mm; zone of inhibition at 1000 µg/mL [4]: 7 mm
Nc1ccc(C2(O)C(=O)c3ccccc3C2=O)c2ncccc12			inactive	inactive		inactive	inactive		8	inactive	inactive	inactive	
Nc1ccc(C2(c3ccc(N)cc3)C(=O)c3ccccc3C2=O)cc1		8	inactive	inactive		inactive		7	6		inactive		MIC [17]: 1000 mg/L (≈ 3050 µM); zone of inhibition at 1000 µg/mL [19]: 8.2 mm; zone of inhibition at 1000 µg/mL [20]: 9 mm; MIC [10]: 1000 mg/L (≈ 3050 µM); MIC [11]: 1000 mg/L (≈ 3050 µM); zone of inhibition at 1000 µg/mL [12]: 10 mm; zone of inhibition at 1000 µg/mL [7]: 7 mm
Nc1ccc(C2(c3ccc(N)c([N+](=O)[O-])c3)C(=O)c3ccccc3C2=O)cc1[N+](=O)[O-]	inactive		inactive			inactive	inactive			inactive	inactive	inactive	zone of inhibition at 1000 µg/mL [4]: 8 mm
